Assays:
Strains TA 98 and TA 100 = assay: Ames Test for mutagenicity; type: cell-based
Description: The compounds of FIGS. 3 and 3(a) were tested for mutagenicity by means of the Ames Test using Strains TA 98 and TA 100. The results were negative for both compounds.

[1] = test system: allergic conjunctival itch; assay: Allergic conjunctival itch model; type: in vivo; conditions: FIGS. 10 and 11
Description: The compounds of this invention were tested according to the method described in “Characterization of Receptor Subtypes Involved in Prostanoid-Induced Conjunctival Pruritis and Their Role in Mediating Conjunctival Itching”, Vol. 279, No. 1, (JPET) 279, 137-142' 1996 for their efficacy in alleviating itch.

[2] = test system: Dutch-belted pigmented rabbits; assay: Arachidonate induced uveitis, anterior chamber leukocyte infiltration; type: in vivo, rabbit; conditions: topical, concentrations of 0.1, 0.3 and 1%; sodium arachidonate challenge; FIG. 12
Description: Arachidonate Induced Uveitis
The rational for this protocol is to use arachidonate to directly produce ocular anterior segment uveitis, as opposed to using lipopolysaccharide (LPS) to indirectly release arachidonic acid.
Conscious male or female Dutch-belted pigmented rabbits weighing 2.5-3 kg were used for all in vivo slit lamp studies. Four animals were employed per test group. The right eye of each animal receiving 35 μl of topically administered test and the contralateral left eye of each animal receiving 35 μl of topically administered vehicle (t=0 minutes), followed 30 minutes later by treatment with 35 μl of 0.5% sodium arachidonate onto the surface of both eyes (t=30 minutes). Both eyes were examined by slit lamp 60 minutes following sodium arachdionate challenge (t=90 minutes) at 16× magnification under both white light and blue light illumination at an approximate angle of 45° through 1 mm and 5 mm slit widths.
Measurement of Anterior Chamber Leukocyte Infiltration:
Anterior chamber leukocyte infiltration was measured using a numerical scoring system to estimate cell number per field defined by a 5 mm slit width: 0=no cells per field (no response); 1=1-10 cells per field (mild); 2=11-20 cells per field (moderate); 3=[…] cells per field (severe); 4=>50 cells per filed (florid). Results are reported as the mean score value±S.E.M.

SMILES	mutagenicity (Ames Test) (Strains TA 98 and TA 100)	number of itch-scratch episodes [1]	anterior chamber leukocyte infiltration (uveitis model) [2]
CCC(CC)COc1ccc(Br)cc1Cn1nc(CCC(=O)O)cc1C [Example 3, 3-{1-[5-Bromo-2-(2-ethyl-butoxy)-benzyl]-5-methyl-1H-pyrazol-3-yl}-propionic acid]	negative	significantly lower number of itch-scratch episodes	dose dependent response
CCC(CC)COc1ccc(Cl)cc1Cn1nc(CCC(=O)O)cc1C [Example 3a, 3-{1-[5-Chloro-2-(2-ethyl-butoxy)-benzyl]-5-methyl-1H-pyrazol-3-yl}-propionic acid]	negative	significantly lower number of itch-scratch episodes	dose dependent response
